Data set [1] can be described thus: Pharmacokinetic oral study in rat. Type of data set: in vivo, SD Rats. As to conditions: for AUClast ratio / Cmax ratio: PO, 100 mg/kg vs 44 mg/kg; for Cmax / Tmax: Sprague-Dawley. On the procedure: Sprague Dawley rats were treated with 7.8 mg/Kg of Compound 43 dissolved in 10% DMA:[…]:16% ca vitron. At specified time points 10 uL of whole blood/plasma was removed from rats and treated with 490 ul pH 3 buffer+500 uL ACN/IS, then shaken for 1 hour, centrifuged for 10 minutes at […] at 4 C. The supernatant was transferred to a filter plate and centrifuged at 2000 rpm for 1 minute at 4 C. The samples were then analyzed by LC-MS/MS monitoring parent aldehyde.
SD Rats were treated by gavage with 44 mg/kg and 100 mg/kg dissolved in 10% DMA:90% PEG. At specified time points blood was taken and worked up as described above in the IV Study.

In another data set the target is T1, HbS (Homo sapiens, UniProt P68871+P69905, E7V).
T1 construct: Oxygen Equilibrium Curves (OEC) of whole blood before and after treatment; endogenous in cells; host or cells: whole blood (red blood cells) of homozygous sickle cell patients
Briefly: Whole blood assay, oxygen equilibrium curves of whole blood from sickle cell patients. The settings on record: hematocrit 20%, compound at 1000 μM. In kind it is cell-based. On the procedure:
Oxygen Equilibrium Curves (OEC) of whole blood before and after treatment with different concentrations of substituted benzaldehyde compounds were performed as follows using a HEMOX analyzer (TCS Scientific, New Hope, Pa.). Blood samples from homozygous sickle cell patients were obtained though the Hemoglobinopathy Center at Children's Hospital Oakland Research Institute (CHORI) with Institutional Review Board approval. The hematocrit was adjusted to 20% using autologous plasma and the blood samples were incubated for 1 hour at 37° C. in absence or presence of compounds. 100 μl of these samples were added to 5 mL of Hemox buffer (30 mM TES, 130 mM NaCl, 5 mM KCl, pH=7.4) at 37° C. and then transferred to the Hemox sample chamber. The samples were saturated with oxygen by flushing with compressed air for 10 minutes. The samples were then flushed with pure nitrogen and the respective absorbances of oxy- and deoxy-Hb are recorded as a function of the solution pO2. The oxygen equilibrium data were then fitted to the Hill Model to obtain values for p50. The deoxygenation curves for both whole blood alone (control) and whole blood in the presence of the compound were collected with the TCS software.
Table 5 below lists the delta p50% values where + indicates a delta p50% of between 0 and 29, ++ indicates a delta p50% of between 30 and 50, and +++ indicates a delta p50% of 50 or greater. The compounds in Table 2 were tested at 1000 μM.

The target in another data set is T2, purified HBS (Homo sapiens, UniProt P68871+P69905, E7V).
T2 construct: HbS is purified by the CRO VIRUSYS, from blood obtained from homozygous sickle cell patients; tissue VIRUSYS (CRO that did the purification); host or cells: blood of homozygous sickle cell patients
Nature of the data set: HbS polymerization assay (delay time). Type of data set: biochemical. As to conditions: 50 μM purified HBS, 1.8 M potassium phosphate pH 7.4. The method, then: Polymerization assays are carried out in vitro using purified HBS exchanged into 1.8 M potassium phosphate buffer at pH 7.4. Using a slightly modified protocol (Antonini and Brunori, 1971), HbS is purified by the CRO VIRUSYS, from blood obtained from homozygous sickle cell patients through the Hemoglobinopathy Center at Children's Hospital Oakland Research Institute (CHORI) with Institutional Review Board approval. Compounds are prepared in 100% DMSO and a desired amount is added to 50 μM of purified HBS at a final DMSO concentration of 0.3%. Final potassium phosphate concentration is adjusted to 1.8 M using a combination of 2.5 M potassium phosphate stock solution and water at pH 7.4. The reaction mixture is incubated for an hour at 37° C. and then transferred into a 24-well plate for deoxygenation in a glove box containing 99.5% nitrogen and 0.5% oxygen. The 24-well plate is not covered and incubated at 4° C. on a plate cooler inside the glove box for one and a half hours. Fifty μL of the reaction mixture is transferred into a 96-well plate and the absorbance at 700 nm is measured every minute for one hour at 37° C. in a plate reader located inside the glove box. A plot of the absorbance against time is fitted using a Boltzman sigmoidal fit and the delay time (from zero to time at half Vmax) is measured. To compare and rank compounds, delay times are expressed as percent delay (% DT), which is defined as the difference in delay times for HBS/compound and HBS alone multiplied by 100 and divided by the delay time for HBS alone.
Compounds listed below have been tested in the polymerization assay. Activity ranges are defined by the number of dagger (†) symbols indicated. † denotes activity ≤40% but ≤80%; †† denotes activity >80% but ≤120%; ††† denotes activity >120% but ≤140%; †††† denotes activity >160%.

Another data set concerns the target T3, HbS/A (Homo sapiens, UniProt P68871+P69905, E7V).
T3 construct: A mixture of HbS/A was purified from blood; from tissue; host or cells: blood of homozygous sickle cell patients
Nature of the data set: Relaxed-to-tense transition assay (R/T assay). As to conditions: compound at 30 μm; 3 μM HbS/A. In kind it is biochemical. The method, then: A relaxed-to-tense transition assay (“R/T assay”) was used to determine the ability of substituted benzaldehyde compounds to maintain the high-oxygen affinity relaxed (R) state of hemoglobin under deoxygenated conditions. This ability can be expressed as a “delta R” value (i.e., the change in the time-period of the R state after hemoglobin is treated with a compound, as compared to the period without treatment with the compound). Delta R is the % R to remaining after the compounds treatment compared with no treatment (e.g. if R % without treatment is 8% while with treatment with a target compound is 48% R at 30 μM, then % R is 40% for that compound.
A mixture of HbS/A was purified from blood obtained from homozygous sickle cell patients though the Hemoglobinopathy Center at Children's Hospital Oakland Research Institute (CHORI) with Institutional Review Board approval. HbS/A (at a final concentration of 3 μM) was incubated for 1 hr at 37° C. in presence or absence of compounds in […] potassium phosphate buffer, pH=7.4 and 30 μM 2, 3 diphosphoglycerate (DPG) in 96 well plates in a final volume of 160 μl. Compounds were added at different concentrations (3 μM to 100 μM final concentrations). Plates were covered with a Mylar film. After incubation was completed the Mylar cover was removed and the plates were placed in a Spectrostar Nano plate reader previously heated at 37° C. Five minutes later, N2 (flow rate=20 L/min) was flowed through the spectrophotometer. Spectroscopic measurements (300 nm to 700 nm) were taken every 5 min for 2 hours. Data analysis was performed by using linear regression from the data retrieved for all wavelengths.
Table 4 below lists the delta R values where + indicates a delta R of between 0 and 30, ++ indicates a delta R of between 30 and 50, and +++ indicates a delta R of 50 or greater. Unless noted otherwise, the compounds in Table 2 were tested at 9 μM.

[2] abbreviates: whole blood, PO 44 mg/kg, Blood.
Setting [3] is: whole blood, PO 100 mg/kg, Blood.

One compound from patent US10034879B2, “Substituted benzaldehyde compounds and methods for their use in increasing tissue oxygenation” (Global Blood Therapeutics, Inc., priority 2011, dated 2018) can be followed below.

As a reminder, the Cmax is the maximum level reached in the sampled fluid or tissue. The term Tmax denotes the time at which the peak concentration occurs.

SMILES strings stand for the structures.

In the case of `CC(C)n1nccc1-c1ncccc1COc1cccc(O)c1C=O` [Compound 43, 2-hydroxy-6-((2-(1-isopropyl-1H-pyrazol-5-yl)pyridin-3-yl)methoxy)benzaldehyde], the AUClast in data set [1] (PO 44 mg/kg, Blood) was 395638.27 µmol·min/L; in data set [1] (PO 44 mg/kg, Plasma) it was 12517.54 µmol·min/L; in data set [1] (PO 100 mg/kg, Blood) it was 1384101.11 µmol·min/L; in data set [1] (PO 100 mg/kg, Plasma), 52836.17 µmol·min/L. Besides, the AUClast ratio in data set [1] (Blood) was 3.50; in data set [1] (Plasma) it was 4.22. Also, the Cmax ratio in data set [1] (Blood) is 2.88; in data set [1] (Plasma) it was 3.01. In addition, the Cmax turned out to be 14.8 µM in data set [1] (PO 44 mg/kg, Plasma); 44.5 µM in data set [1] (PO 100 mg/kg, Plasma); 381 µM in data set [1] (setting [2]); 1100 µM in data set [1] (setting [3]). Also, the Tmax was 3.33 h in data set [1] (PO 44 mg/kg, Plasma); 11.3 h in data set [1] (PO 100 mg/kg, Plasma); 5.33 h in data set [1] (setting [2]); 12 h in data set [1] (setting [3]). Also, the “delta p50%” value at HbS is “+++ (+++ indicates a delta p50% of 50 or greater)”. Moreover, on purified HBS, the “% delta Delay” value was “†† (†† denotes activity >80% but ≤120%)”. Moreover, the “delta R (%)” value at HbS/A is listed as “+++ (30 μm) (+++ indicates a delta R of 50 or greater)”.
